Experimental data from ChEMBL document CHEMBL1201862, “PubChem BioAssay data set” (2004).
Active and inactive are the calls of the source.

Legend:
[1] = luciferase reporter signal suppression in cells – H4 neuroglioma cells, luminescence, dose response (AID 1990); type: functional, cell-based
[2] = Counterscreen for antagonists of the human trace amine associated receptor 1 (hTAAR1): Fluorescence-based cell-based high throughput dose response assay to identify nonselective Ga16 antagonists.; type: functional
[3] = Counterscreen for […] of the human trace amine associated receptor 1 (TAAR1): Fluorescence-based cell-based high throughput dose response assay to identify nonselective Ga16 agonists.; type: functional
[4] = Luminescence Cell-Based Dose Response HTS to Identify Inhibitors of 5'UTR Stem-Loop Driven Prion Protein mRNA Translation in H4 Neuroglioblastoma Cells. [Related pubchem assays: 1827 (Project Summary), 1813 (Primary HTS)]; type: functional
[5] = alpha-synuclein stem-loop luciferase translation blockers – H4 neuroglioma cells, luminescence, confirmation (AID 1988); type: functional, cell-based
[6] = target: T1, Trace amine-associated receptor 1 (Homo sapiens, UniProt Q96RJ0); assay: Fluorescence-based cell-based high throughput dose response assay to identify antagonists of the human trace amine associated receptor 1 (TAAR1).; type: functional
T1 sequence (Q96RJ0 whole entry): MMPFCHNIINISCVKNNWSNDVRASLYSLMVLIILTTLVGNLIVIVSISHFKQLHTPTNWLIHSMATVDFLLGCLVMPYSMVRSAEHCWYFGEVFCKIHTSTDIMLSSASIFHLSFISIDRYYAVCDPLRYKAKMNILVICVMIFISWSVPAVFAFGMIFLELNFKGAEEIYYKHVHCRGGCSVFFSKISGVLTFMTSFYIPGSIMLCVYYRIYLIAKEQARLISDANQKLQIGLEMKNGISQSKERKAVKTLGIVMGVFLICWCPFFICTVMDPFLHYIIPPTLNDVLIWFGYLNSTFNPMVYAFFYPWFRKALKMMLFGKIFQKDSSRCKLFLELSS

[7] = target: T1, Trace amine-associated receptor 1; assay: Counterscreen for antagonists of the human trace amine associated receptor 1 (hTAAR1): Fluorescence-based cell-based high throughput dose response assay to identify TAAR1 Agonists.; type: functional
Streptococcus = assay: GAS UMAA2166 growth inhibition – luminescence, BacTiterGlo, counter-screen for streptokinase expression inhibitor project, dose response (AID 1915); type: functional, organism-based;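 also: potency for reduction of bacterial viability or growth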
[8] = system: Streptococcus sp. 'group A'; assay: Streptococcus pyogenes SK(-)GAS viability under kanamycin – luminescence, BacTiterGlo, confirmation, counter-screen for streptokinase expression inhibitor project, dose response (AID 1900); type: functional, organism-based
[9] = target: T2, Short transient receptor potential channel 4 (Mus musculus, UniProt Q9QUQ5); assay: calcium entry via TRPC4 opening agents – cell-based, HEK293 TRPC4/mu-opioid, Fluo-4 calcium, dose response (AID 434937); type: functional
T2 sequence (Q9QUQ5 whole entry): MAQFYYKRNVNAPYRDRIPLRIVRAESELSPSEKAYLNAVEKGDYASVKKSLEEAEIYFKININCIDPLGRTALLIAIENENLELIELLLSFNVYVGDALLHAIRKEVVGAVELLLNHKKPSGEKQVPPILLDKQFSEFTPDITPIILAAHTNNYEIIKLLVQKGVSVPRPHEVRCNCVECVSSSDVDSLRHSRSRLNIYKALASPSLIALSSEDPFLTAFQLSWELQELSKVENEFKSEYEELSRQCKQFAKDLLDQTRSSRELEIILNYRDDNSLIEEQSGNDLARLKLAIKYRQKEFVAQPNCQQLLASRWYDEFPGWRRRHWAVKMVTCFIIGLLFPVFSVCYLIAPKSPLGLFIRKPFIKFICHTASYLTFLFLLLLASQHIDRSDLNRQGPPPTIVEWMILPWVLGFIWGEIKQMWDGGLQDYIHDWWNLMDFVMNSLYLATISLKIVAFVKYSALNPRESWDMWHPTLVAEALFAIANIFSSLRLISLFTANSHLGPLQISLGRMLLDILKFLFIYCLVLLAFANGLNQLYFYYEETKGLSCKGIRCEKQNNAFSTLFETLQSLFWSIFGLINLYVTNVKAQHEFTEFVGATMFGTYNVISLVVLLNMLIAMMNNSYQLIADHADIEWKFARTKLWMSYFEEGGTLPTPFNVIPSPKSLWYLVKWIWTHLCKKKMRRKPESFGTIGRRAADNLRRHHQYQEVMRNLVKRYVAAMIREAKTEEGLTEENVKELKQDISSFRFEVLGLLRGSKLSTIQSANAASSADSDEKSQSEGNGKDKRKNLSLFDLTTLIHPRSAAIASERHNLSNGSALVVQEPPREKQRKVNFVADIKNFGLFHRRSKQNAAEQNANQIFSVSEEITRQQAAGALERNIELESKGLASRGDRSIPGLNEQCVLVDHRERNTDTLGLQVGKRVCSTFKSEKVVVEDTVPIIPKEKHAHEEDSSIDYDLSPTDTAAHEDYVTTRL

[10] = HGIII-sPLA2 enzyme inhibition potency – biochemical, QFRET, IC50, dose response (AID 743457);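 also: green fluorescence rise as the enzyme cleaves BODIPY PC-A2 in liposomes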
[11] = cell viability loss, ATP luminescence – CellTiter-Glo, 24 h, powder samples, set 7, cytotoxicity control for SR-BI HDL uptake inhibitor project, dose response (AID 624026); type: functional, cell-based
[12] = target: T3, Scavenger receptor class B member 1 (Mus musculus, UniProt Q61009); assay: blockers of DiI-HDL lipid transfer via SR-BI – cell-based, ldlA[mSR-BI] CHO, DiI fluorescence, dry powder, set 10, dose response (AID 624029); type: functional
[13] = target: T3, Scavenger receptor class B member 1; assay: mouse SR-BI DiI-HDL transfer blockers – ldlA[mSR-BI] CHO cells, fluorescence plate reader, dry powder, set 9, dose response (AID 623880); type: functional, cell-based
[14] = HeLa cell viability loss – 24 h, dry powder, set 2, cytotoxicity control, dose response (AID 651774); type: functional, cell-based
A549 = assay: viability loss in A549 cells – cell-based, plate reader, cherry-pick samples, cytotoxicity control, dose response (AID 687028); type: functional; details: Homo sapiens

T3 sequence (Q61009 whole entry): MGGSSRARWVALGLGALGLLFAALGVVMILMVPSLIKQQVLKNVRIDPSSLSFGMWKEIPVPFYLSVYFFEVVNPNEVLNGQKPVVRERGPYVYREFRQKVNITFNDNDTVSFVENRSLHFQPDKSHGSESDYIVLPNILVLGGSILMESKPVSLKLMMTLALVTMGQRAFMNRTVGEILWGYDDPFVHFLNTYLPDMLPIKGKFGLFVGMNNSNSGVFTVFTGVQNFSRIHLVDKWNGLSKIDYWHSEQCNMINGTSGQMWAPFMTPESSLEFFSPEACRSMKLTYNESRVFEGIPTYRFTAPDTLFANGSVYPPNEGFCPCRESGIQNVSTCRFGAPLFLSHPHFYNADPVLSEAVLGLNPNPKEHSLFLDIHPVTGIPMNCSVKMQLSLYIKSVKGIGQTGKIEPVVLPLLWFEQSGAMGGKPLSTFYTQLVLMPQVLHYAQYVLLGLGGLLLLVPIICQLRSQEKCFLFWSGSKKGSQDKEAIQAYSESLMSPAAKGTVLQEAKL

Compound: Cc1ccccc1N(C(=O)c1snc(C(N)=O)c1N)C(C(=O)NC1CCCCC1)c1ccc(O)cc1 (stereo unspecified)
- EC50 [1]: 12.8 µM (active)
- IC50 [2]: > 29.9 µM (inactive)
- EC50 [3]: > 29.9 µM (inactive)
- EC50 [4]: > 120 µM (not active)
- EC50 [5]: 77.7 µM (active)
- IC50 [6]: 3.16 µM (active)
- EC50 [7]: > 29.9 µM (inactive)

Compound: Cc1onc(-c2ccccc2)c1C(=O)NNC(=S)NC(=O)c1ccc2c(c1)OCO2
- EC50 (Streptococcus): 4.64 µM (active)
- EC50 [8]: 0.978 µM (active)
- EC50 [9]: 4.22 µM (active)
- IC50 [10]: 56.6 µM (inactive)

Compound: CC.CCCCCCC1CCC/C1=N\NC(N)=S (stereo unspecified)
- AC50 [11]: 2.08 µM (active)
- AC50 [12]: 0.005 µM (active)
- AC50 [13]: 0.00737 µM (active)

Compound: CCn1nnnc1NC(=O)c1ccc(N2CCCC2)cc1
- AC50 [14]: 19.7 µM (active)

Compound: COc1ccc(S(=O)(=O)Nc2ccc3c(c2)C(=O)N([C@@H](C)CO)C[C@H](C)[C@H](CN(C)C(=O)Nc2ccc(C(F)(F)F)cc2)OCCCC[C@H](C)O3)cc1
- AC50 (A549): 24.9 µM (active)
